Peptide text beside a SMILES is read from it.
What was measured:
[1] = Ionization constant was determined; assay type: physicochemical
[2] = Inhibition of Cl- dependent binding sites of AP4 receptor labeled with [3H]- glutamic acid
[3] = Inhibition of specific brain peptidase

SMILES	pKa [1]	Ki [2] [nM]	IC50 [3] [nM]
NC(CN1CC(=O)NC1=O)C(=O)O (centres undefined)	8.2	–	–
CC(=O)NC(CC(=O)O)C(=O)NC(CCC(=O)O)C(=O)O (stereo not drawn) (Ac-Asp-Glu-OH; configuration not given here)	–	420	–
N[C@@H](Cn1oc(=O)[nH]c1=O)C(=O)O [QUISQUALATE]	4.2	–	480

— ChEMBL document CHEMBL1123994, “Excitatory amino acid neurotransmission” (J Med Chem, 1988)
